Test results published in patent US12692269B2, “Therapeutic compounds” (Genentech, Inc., priority 2019, dated 2026).

How the values were obtained:
Assay type in all cases: binding
TEAD1 YAP50-100 = TEAD1 YAP50-100 (Homo sapiens, UniProt P28347); experiment: TEAD1-YAP HTRF (TR-FRET) protein-protein interaction assay; details: TEAD1, YAP peptide 50-100, HTRF; for EC50: read-out: TEAD1 YAP50-100 HTRF combined: EC50
Method: (§1) Purified His-tagged TEAD protein (YAP Binding Domain, amino acids 217-447) is pre-incubated with Europium labelled anti-His antibody tracer (Perkin Elmer Cat #AD0110). Small molecule Inhibitors are then incubated with the TEAD-Eu protein complex for 30 minutes to allow for binding to TEAD protein. Biotinylated YAP peptide for TEAD-YAP assays (AA's 50-100) or biotinylated TAZ peptide for TEAD-TAZ assays (AA's 13-57) that has been pre-incubated with streptavidin-xl665 acceptor (CIS-Bio Cat #610SAXAC) or is added to the compound-TEAD mix. The TEAD-YAP-inhibitor mixture is then incubated for 60 minutes at room temperature. All reactions are carried out in a polystyrene plate. After 60 minutes, the plate is read on a plate reader using TR-FRET mode with wavelengths of 665 nm/615 nm. If YAP or TAZ binds to TEAD as expected, a TR-FRET signal results from the proximity of YAP or TAZ and TEAD after binding. If an inhibitor such as peptide 17 (Selleckchem Cat #58164) interferes with YAP-TEAD or TAZ-TEAD binding, the disruption of the YAP or TAZ:TEAD interaction results in a decrease in TR-FRET signal. The potency of compounds as YAP:TEAD or TAZ:TEAD protein-protein interaction (PPi) inhibitors is determined by an IC50 or EC50 value generated using a non-linear four parameter curve fit.

[1] = target: TEAD3 TAZ (amino acids 13-57) (Homo sapiens, UniProt Q99594); experiment: TEAD3-TAZ HTRF (TR-FRET) protein-protein interaction assay; details: for TEAD3 TAZ HTRF combined: Max % Inhibition: TEAD3, TAZ peptide; for EC50: TEAD3-TAZ HTRF, TR-FRET 665 nm/615 nm, read-out: TEAD3 TAZ HTRF combined: EC50
Sequence of TEAD3 TAZ (amino acids 13-57) (Q99594 173-435 limits assumed): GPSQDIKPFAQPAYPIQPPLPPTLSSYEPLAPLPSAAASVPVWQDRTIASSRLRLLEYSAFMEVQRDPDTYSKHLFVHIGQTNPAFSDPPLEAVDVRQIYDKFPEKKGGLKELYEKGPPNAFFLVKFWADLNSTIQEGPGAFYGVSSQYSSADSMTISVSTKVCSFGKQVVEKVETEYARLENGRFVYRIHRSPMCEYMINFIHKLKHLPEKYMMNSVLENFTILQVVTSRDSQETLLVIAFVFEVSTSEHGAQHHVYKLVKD
Method: as §1

TEAD3 YAP50-100 = TEAD3 YAP50-100 (Homo sapiens, UniProt Q99594); experiment: TEAD3-YAP HTRF (TR-FRET) protein-protein interaction assay; details: TEAD3, YAP peptide 50-100, HTRF; for EC50: read-out: TEAD3 YAP50-100 HTRF combined: EC50
Sequence of TEAD3 YAP50-100 (Q99594 173-435 limits assumed): as above
Method: as §1

[2] = target: TEAD1 TAZ (amino acids 13-57) (Homo sapiens, UniProt P28347); experiment: TEAD1-TAZ HTRF (TR-FRET) protein-protein interaction assay; details: for TEAD1 TAZ HTRF combined: Max % Inhibition: TEAD1, TAZ peptide; for EC50: TEAD1-TAZ HTRF, TR-FRET 665 nm/615 nm, read-out: TEAD1 TAZ HTRF combined: EC50
Sequence of TEAD1 TAZ (amino acids 13-57) (P28347 167-426 limits assumed): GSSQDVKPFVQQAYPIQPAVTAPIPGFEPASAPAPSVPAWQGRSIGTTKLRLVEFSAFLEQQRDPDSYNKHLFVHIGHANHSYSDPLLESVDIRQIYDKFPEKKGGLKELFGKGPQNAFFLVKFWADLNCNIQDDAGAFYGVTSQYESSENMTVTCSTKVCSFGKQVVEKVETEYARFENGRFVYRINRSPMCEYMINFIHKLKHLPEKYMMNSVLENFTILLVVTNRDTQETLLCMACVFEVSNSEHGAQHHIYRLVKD
Method: as §1

TEAD2 YAP50-100 = TEAD2 YAP50-100 (Homo sapiens, UniProt Q15562); experiment: TEAD2-YAP HTRF (TR-FRET) protein-protein interaction assay; details: TEAD2, YAP peptide 50-100, HTRF; for EC50: read-out: TEAD2 YAP50-100 HTRF combined: EC50
Sequence of TEAD2 YAP50-100 (Q15562 217-447): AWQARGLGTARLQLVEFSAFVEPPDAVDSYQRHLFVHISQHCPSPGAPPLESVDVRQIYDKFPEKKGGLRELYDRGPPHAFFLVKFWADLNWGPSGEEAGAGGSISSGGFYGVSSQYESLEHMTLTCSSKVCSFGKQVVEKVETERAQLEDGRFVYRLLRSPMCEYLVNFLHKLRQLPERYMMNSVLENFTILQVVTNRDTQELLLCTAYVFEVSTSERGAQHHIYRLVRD
Method: as §1

[3] = target: TEAD4 TAZ (amino acids 13-57) (Homo sapiens, UniProt Q15561); experiment: TEAD4-TAZ HTRF (TR-FRET) protein-protein interaction assay; details: for TEAD4 TAZ HTRF combined: Max % Inhibition: TEAD4, TAZ peptide; for EC50: TEAD4-TAZ HTRF, TR-FRET 665 nm/615 nm, read-out: TEAD4 TAZ HTRF combined: EC50
Sequence of TEAD4 TAZ (amino acids 13-57) (Q15561 217-434 limits assumed): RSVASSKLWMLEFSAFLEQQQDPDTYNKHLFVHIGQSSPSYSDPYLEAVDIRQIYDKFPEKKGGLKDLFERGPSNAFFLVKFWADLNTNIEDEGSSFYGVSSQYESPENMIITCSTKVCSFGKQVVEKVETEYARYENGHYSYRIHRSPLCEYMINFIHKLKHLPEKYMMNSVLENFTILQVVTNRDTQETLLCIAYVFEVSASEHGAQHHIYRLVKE
Method: as §1

[4] = target: TEAD2 TAZ (amino acids 13-57) (Homo sapiens, UniProt Q15562); experiment: TEAD2-TAZ HTRF (TR-FRET) protein-protein interaction assay; details: for TEAD2 TAZ HTRF combined: Max % Inhibition: TEAD2, TAZ peptide; for EC50: TEAD2-TAZ HTRF, TR-FRET 665 nm/615 nm, read-out: TEAD2 TAZ HTRF combined: EC50
Sequence of TEAD2 TAZ (amino acids 13-57) (Q15562 217-447): as the sequence (Q15562 217-447) above
Method: as §1

TEAD4 YAP50-100 = TEAD4 YAP50-100 (Homo sapiens, UniProt Q15561); experiment: TEAD4-YAP HTRF (TR-FRET) protein-protein interaction assay; details: TEAD4, YAP peptide 50-100, HTRF; for EC50: read-out: TEAD4 YAP50-100 HTRF combined: EC50
Sequence of TEAD4 YAP50-100 (Q15561 217-434 limits assumed): as the sequence (Q15561 217-434 limits assumed) above
Method: as §1

Sequence of TEAD1 YAP50-100 (P28347 167-426 limits assumed): as the sequence (P28347 167-426 limits assumed) above

| Structure (SMILES) | TEAD1 YAP50-100 HTRF combined: Max % Inhibition (TEAD1 YAP50-100) [%] | EC50 (TEAD1 YAP50-100) [nM] | TEAD3 TAZ HTRF combined: Max % Inhibition [1] [%] | EC50 [1] [nM] | TEAD3 YAP50-100 HTRF combined: Max % Inhibition (TEAD3 YAP50-100) [%] | EC50 (TEAD3 YAP50-100) [nM] | TEAD1 TAZ HTRF combined: Max % Inhibition [2] [%] | EC50 [2] [nM] | TEAD2 YAP50-100 HTRF combined: Max % Inhibition (TEAD2 YAP50-100) [%] | EC50 (TEAD2 YAP50-100) [nM] | TEAD4 TAZ HTRF combined: Max % Inhibition [3] [%] | EC50 [3] [nM] | TEAD2 TAZ HTRF combined: Max % Inhibition [4] [%] | EC50 [4] [nM] | TEAD4 YAP50-100 HTRF combined: Max % Inhibition (TEAD4 YAP50-100) [%] | EC50 (TEAD4 YAP50-100) [nM] |
| --- | --- | --- | --- | --- | --- | --- | --- | --- | --- | --- | --- | --- | --- | --- | --- | --- |
| C[C@@H](CO)c1nn2c(=O)cc(-c3ccc(C4CCCCC4)cc3)[nH]c2c1C(=O)N1CC(CF)C1 (single isomer, unassigned) [Enantiomer B, Example 55] | 71.0 | 80 | 53.5 | 100 | 61.5 | 80 | 45.5 | 90 | 64.0 | 10 | 27.0 | 140 | 57.0 | 20 | 36.5 | 200 |
| Cc1ccnc(-c2nn3c(=O)cc(-c4ccc(C5CCCCC5)cc4)[nH]c3c2C(=O)N2CC(CF)C2)n1 [Compound 9, 5-(4-Cyclohexylphenyl)-3-(3-(fluoromethyl)azetidine-1-carbonyl)-2-(4-methylpyrimidin-2-yl)pyrazolo[1,5-a]pyrimidin-7(4H)-one] | 71.0 | 30 | 52.5 | 90 | 62.0 | 80 | 69.5 | 40 | 62.0 | 10 | 56.0 | 30 | 63.0 | 10 | 52.0 | 30 |
| O=C(c1c(-c2ccccc2)nn2c(=O)cc(-c3ccc(C4CCCCC4)cc3)[nH]c12)N1CC(CF)C1 [Compound 38, 5-(4-Cyclohexylphenyl)-3-(3-(fluoromethyl)azetidine-1-carbonyl)-2-phenylpyrazolo[1,5-a]pyrimidin-7(4H)-one] | 64.0 | 210 | 61.0 | 250 | 65.0 | 220 | 47.5 | 220 | 61.5 | 30 | 37.5 | 130 | 64.0 | 20 | 41.0 | 200 |
| O=C(c1c(-c2ncccn2)nn2c(=O)cc(-c3ccc(C4CCCCC4)c(F)c3)[nH]c12)N1CC(CF)C1 [Compound 22, 5-(4-Cyclohexyl-3-fluorophenyl)-3-(3-(fluoromethyl)azetidine-1-carbonyl)-2-(pyrimidin-2-yl)pyrazolo[1,5-a]pyrimidin-7(4H)-one] | 69.0 | 140 | 57.0 | 210 | 60.0 | 210 | 64.0 | 110 | 58.0 | 20 | 48.0 | 60 | 57.5 | 20 | 45.5 | 70 |
